Key:
[1] = tested on: MHC class I antigens (HLA-A, B, and C); assay: Flow cytometry of constitutive and IFN-gamma-inducible MHC class I antigens in stably transfected HeLa cells; type: cell-based, human; conditions: HeLa cells stably expressing the peptide
Protocol: (§1) For this reason the function of the cloned cDNA was tested directly using pools of stably transfected HeLa cells. Expression of three families of endogenous IFN-gamma-responsive genes in this reporter cell line was determined by flow cytometry using monoclonal antibodies that recognize MHC class II antigens (HLA-DR, DP, and DQ alpha chains), MHC class I heavy chains (HLA-A, B, and C ), and ICAM-1 antigen.
(§2) The hPL(1-28)-encoding cDNA was subcloned into the mammalian expression vector pSH4-hphm using standard methods. HeLa cells (100 mm dishes) were transfected with […] of HPL(1-28)-pSH4-hph^m DNA or empty vector (negative control) by calcium phosphate-mediated transfection. Stable transfectants were selected with hygromycin at […] for at least 16 days. Flow cytometric analysis was performed on stably transfected pools of cells that were treated in culture with IFN-gamma (0, 20, 66, 200, and 1000 U/ml) for 42 h and suspended for analysis by light trypsinization. […] Antibody binding was detected with FITC-goat anti-mouse antibody (Biomeda), and 20,000 cells were analyzed with a FACScan (Becton-Dickinson).

[2] = tested on: ICAM-1 antigen; assay: Flow cytometry of ICAM-1 antigen in stably transfected HeLa cells; type: cell-based, human; conditions: HeLa cells stably expressing the peptide
Protocol: as §1
The hPL(1-28)-encoding cDNA was subcloned into the mammalian expression vector pSH4-hphm using standard methods. HeLa cells (100 mm dishes) were transfected with […] of HPL(1-28)-pSH4-hph^m DNA or empty vector (negative control) by calcium phosphate-mediated transfection. Stable transfectants were selected with hygromycin at […] for at least 16 days. Flow cytometric analysis was performed on stably transfected pools of cells that were treated in culture with IFN-gamma (0, 20, 66, 200, and 1000 U/ml) for 42 h and suspended for analysis by light trypsinization. Cells were stained at 4° C. with 10 µg/ml solutions of mAb CR 3/43 (Dako) specific for MHC class II antigens HLA-DP, HLA-DQ, and HLA-DR, mAb G46-2.6 (Pharmingen) specific for MHC class I antigens HLA-A, HLA-B, and HLA-C heavy chains, mAb HA58 (Pharmingen) specific for ICAM-1 antigen, and either non-immune mouse IgG1 or IgG2a as negative control. Antibody binding was detected with FITC-goat anti-mouse antibody (Biomeda), and 20,000 cells were analyzed with a FACScan (Becton-Dickinson).

[3] = tested on: MHC class II antigens (HLA-DR, DP, and DQ); assay: Flow cytometry of IFN-gamma-inducible MHC class II antigens in stably transfected HeLa cells; type: cell-based, human; conditions: HeLa cells stably expressing the peptide; any dose of IFN-gamma up to 1000 U/ml, 42 h; vs vector-transfected control cells
Protocol: as §1, §2

[4] = intravenous insulin tolerance test; cited from earlier work
[5] = glucose-dependent manner; cited from earlier work
[6] = target: insulin receptor (Homo sapiens, UniProt P06213); conditions: isolated cells; cited from earlier work
[7] = target: T1, hGH receptor (Homo sapiens, UniProt P10912); conditions: relative to hGH; cited from earlier work
T1 sequence (P10912 19-638): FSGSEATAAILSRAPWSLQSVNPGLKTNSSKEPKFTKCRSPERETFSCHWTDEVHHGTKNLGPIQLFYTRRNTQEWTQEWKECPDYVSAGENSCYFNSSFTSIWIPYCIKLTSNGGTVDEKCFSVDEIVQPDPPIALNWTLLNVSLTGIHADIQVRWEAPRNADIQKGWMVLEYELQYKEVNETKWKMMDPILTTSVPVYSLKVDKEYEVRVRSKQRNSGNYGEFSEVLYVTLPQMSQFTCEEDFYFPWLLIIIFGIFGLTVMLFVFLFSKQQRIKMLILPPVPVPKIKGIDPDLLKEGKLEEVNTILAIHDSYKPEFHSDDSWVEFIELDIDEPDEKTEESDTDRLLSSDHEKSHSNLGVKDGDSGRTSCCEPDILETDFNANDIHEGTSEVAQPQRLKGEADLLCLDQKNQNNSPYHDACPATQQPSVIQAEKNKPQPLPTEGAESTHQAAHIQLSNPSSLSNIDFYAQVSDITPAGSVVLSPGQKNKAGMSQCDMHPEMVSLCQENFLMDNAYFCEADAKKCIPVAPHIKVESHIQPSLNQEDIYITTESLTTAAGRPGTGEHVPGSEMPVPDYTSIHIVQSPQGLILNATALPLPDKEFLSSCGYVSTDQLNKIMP

[8] = tested on: peripheral blood T-lymphocyte; conditions: in vitro; exogenous full-length hormone; cited from earlier work
[9] = tested on: bovine brain capillary endothelial cell (BBCE); conditions: cited from earlier work
[10] = tested on: tonsil B-lymphocyte; conditions: in vitro; exogenous full-length hormone; cited from earlier work

VQTVPLSRLFDHAMLQAHRAHQLAIDTY (VQTVPLSRLFKEAMLQAHRAHQLAIDTY; HOMO SAPIENS; hPL(1-28) peptide) [isolated peptide, N-terminal 28 residues of secreted human placental lactogen; tested as product of transfected cDNA]
IFN-gamma-induced high level expression of class I genes ([1]; IFN-gamma treatment 42 h): did not induce high level expression
constitutive expression of MHC class I genes (HLA-A, B, and C antigens) ([1]; absence of IFN-gamma): not reduced
fraction of ICAM-1 high-level positive cells ([2]; 20 U/ml of IFN-gamma): less
cells expressing ICAM-1 at high level ([2]; absence of IFN-gamma treatment): More than 50%
fraction of ICAM-1 high-level positive cells ([2]; higher doses of IFN-gamma (above 20 U/ml)): still lower
levels of HLA-DR, DP, and DQ antigens after IFN-gamma treatment [3]: not increased

hGH(6-13): octapeptide representing residues 6-13 of hGH (LSRLFDNA; UniProt P01241 32-39, looked up, fragment)
hypoglycemic activity [4]: hypoglycemic activity
insulin secretion [5]: augmented
binding of insulin to insulin receptor [6]: increased

B1: hPL: full-length human placental lactogen, mature polypeptide encoded by hPL-3 and hPL-4 genes (protein, UniProt P0DML2 27-217, looked up)
Chorionic somatomammotropin …: VQTVPLSRLFDHAMLQAHRAHQLAIDTYQEFEETYIPKDQKYSFLHDSQTSFCFSDSIPTPSNMEETQQKSNLELLRISLLLIESWLEPVRFLRSMFANNLVYDTSDSDDYHLLKDLEEGIQTLMGRLEDGSRRTGQILKQTYSKFDTNSHNHDALLKNYGLLYCFRKDMDKVETFLRMVQCRSVEGSCGF
binding to the hGH receptor, weaker than hGH [7]: 2300 fold
peripheral blood T-lymphocyte mitogenic response to phytohemagglutinin [8]: reduced
effect on bFGF-induced BBCE cell proliferation [9]: no significant additive somatotropic effect
tonsil B-lymphocyte mitogenic response to lipopolysaccharide [10]: reduced

B2: hPRL: Human prolactin (protein, UniProt P01236 29-227, looked up)
Prolactin: LPICPGGAARCQVTLRDLFDRAVVLSHYIHNLSSEMFSEFDKRYTHGRGFITKAINSCHTSSLATPEDKEQAQQMNQKDFLSLIVSILRSWNEPLYHLVTEVRGMQEAPEAILSKAVEIEEQTKRLLEGMELIVSQVHPETKENEIYPVWSGLPSLQMADEESRLSAYYNLLHCLRRDSHKIDNYLKLLKCRIIHNNNC
effect on bFGF-induced BBCE cell proliferation [9]: no significant additive somatotropic effect
